From patent publication US11066414B2, “Cot modulators and methods of use thereof” (Gilead Sciences, Inc., priority 2015, dated 2021) come the findings set out here.

Read-outs that look alike come from different tables or passages of the source. Bounds are passed on as bounds.

Experiment [1] concerns the target Human Cot (Homo sapiens (Human), UniProt P41279). Nature of the experiment: High Throughput Cot Biochemical Assay. Conditions: Cot HTRF (TR-FRET) biochemical assay. For orientation: TR-FRET usually uses a lanthanide donor and a delayed reading to cut background.
In experiment [2] the test system is TNFα. As to the kind of experiment: Cot Monocyte TNFα Cell Based Assay.
Experimental: The cell suspension was then plated at a density of 5,000 cells/well onto black 384 well Greiner clear bottom plates. Plates were pre-spotted with test compounds and serially diluted in DMSO where 200 nL/well were delivered using the Echo 550 acoustic liquid dispenser (Labcyte®) for a final DMSO concentration of 0.5%. Plated cells were treated with compound for 1 hour at 37° C. Cells were then stimulated with 50 pg/ml of LPS (Sigma) excluding outside columns of plate used for unstimulated cell control wells. Cells were incubated for an additional 4 hours at 37° C. Cells were then spun out of the media and 5 μl of sample were taken and analyzed for total TNFα content using the TR-FRET Human TNFα detection system (CisBio). This system utilizes two labeled antibodies (cryptate and XL665) that bind to two different epitopes of the TNFα molecule and produce FRET signal proportional to the concentration of TNFα in the sample. […] Plates were covered with clear seals and incubated at room temp overnight. […] Percent of control was calculated as follows: % Control=100×(RatioSample−Ratio0% Stimulation)/(Ratio100% Stimulation−Ratio0% Stimulation) where unstimulated cells (0% stimulation) were the negative control and stimulated cells (100% stimulation) were used as the positive control.
Setting [3] is: Homo sapiens, Monocyte, read-out: EC50 TNF, LPS-stimulated human monocytes, TNFα.
Where [4] appears, read: read-out: EC50 TNF, LPS-stimulated human monocytes, TNFα.

Sequence of Human Cot (P41279 30-397): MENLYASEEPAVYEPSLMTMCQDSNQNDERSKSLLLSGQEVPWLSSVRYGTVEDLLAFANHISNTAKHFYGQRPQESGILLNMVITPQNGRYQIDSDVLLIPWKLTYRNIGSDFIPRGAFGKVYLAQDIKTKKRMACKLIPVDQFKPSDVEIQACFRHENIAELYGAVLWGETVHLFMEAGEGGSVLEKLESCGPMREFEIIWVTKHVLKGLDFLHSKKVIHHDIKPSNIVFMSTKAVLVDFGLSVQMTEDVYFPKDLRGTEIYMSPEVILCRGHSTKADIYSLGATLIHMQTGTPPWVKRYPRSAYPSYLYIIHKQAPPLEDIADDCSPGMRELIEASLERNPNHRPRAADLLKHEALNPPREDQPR

For orientation: IC50 means the concentration at which inhibition is half-maximal. One may read the EC50 as the concentration needed to bring the measured effect to its halfway point. `CCN1Cc2ccc([C@H](Nc3cc(Cl)c4ncc(C#N)c(Nc5ccc(F)c(Cl)c5)c4c3)c3c[nH]nn3)cc2C1` [Example 53, (S)-8-chloro-4-((3-chloro-4-fluorophenyl)amino)-6-(((2-ethylisoindolin-5-yl)(1H-1,2,3-triazol-4-yl)methyl)-amino)quinoline-3-carbonitrile] returned an IC50 in experiment [1] (IC50 HTRF) of 81 nM. For the same compound, the EC50 in experiment [2] (setting [3]) is 4020 nM.

As for `CCN1Cc2cccc([C@H](Nc3cc(Cl)c4ncc(C#N)c(Nc5ccc(F)c(Cl)c5)c4c3)c3c[nH]nn3)c2C1` [Example 54, (S)-8-chloro-4-((3-chloro-4-fluorophenyl)amino)-6-(((2-ethylisoindolin-4-yl)(1H-1,2,3-triazol-4-yl)methyl)amino)quinoline-3-carbonitrile], the IC50 in experiment [1] (IC50 HTRF) was 11 nM. In experiment [2] (setting [3]), the EC50 is 652 nM.

Compound `N#Cc1cnc2c(Cl)cc(N[C@@H](c3ccc4c(c3)CNC4)c3c[nH]nn3)cc2c1Nc1ccc(F)c(Cl)c1` [Example 55, (S)-8-chloro-4-((3-chloro-4-fluorophenyl)amino)-6-((isoindolin-5-yl(1H-1,2,3-triazol-4-yl)methyl)amino)quinoline-3-carbonitrile] yielded an IC50 in experiment [1] (IC50 HTRF) of 58 nM. Also, the EC50 in experiment [2] (setting [3]) was determined as 10800 nM.

In the case of `N#Cc1cnc2c(Cl)cc(N[C@H](c3c[nH]nn3)c3cccc4c3CNC4)cc2c1Nc1ccc(F)c(Cl)c1` [Example 56, (S)-8-chloro-4-((3-chloro-4-fluorophenyl)amino)-6-((isoindolin-4-yl(1H-1,2,3-triazol-4-yl)methyl)amino)quinoline-3-carbonitrile], in experiment [1] (IC50 HTRF), the IC50 came to 6 nM. In addition, in experiment [2] (setting [3]), the EC50 is 2520 nM.

`CC(C)(C)N1CCC(n2cc([C@@H](Nc3cc(Cl)c4ncc(C#N)c(Nc5ccc(F)c(Cl)c5)c4c3)c3ccc4c(c3)CNC4)nn2)CC1` [Example 57, (S)-6-(((1-(1-(tert-butyl)piperidin-4-yl)-1H-1,2,3-triazol-4-yl)(isoindolin-5-yl)methyl)amino)-8-chloro-4-((3-chloro-4-fluorophenyl)amino)quinoline-3-carbonitrile] showed an IC50 in experiment [1] (IC50 HTRF) of 60 nM. For the same compound, the EC50 in experiment [2] (setting [3]) worked out at 5990 nM.

For the compound `CCN1Cc2ccc([C@H](Nc3cc(Cl)c4ncc(C#N)c(Nc5ccc(F)c(Cl)c5)c4c3)c3cn(C4CCN(C(C)(C)C)CC4)nn3)cc2C1` [Example 58, (S)-6-(((1-(1-(tert-butyl)piperidin-4-yl)-1H-1,2,3-triazol-4-yl)(2-ethylisoindolin-5-yl)methyl)amino)-8-chloro-4-((3-chloro-4-fluorophenyl)amino)quinoline-3-carbonitrile], the IC50 in experiment [1] (IC50 HTRF) came to 72 nM. Further, the EC50 in experiment [2] (setting [3]) was 2980 nM.

Compound `CC(C)(C)N1CCC(n2cc([C@@H](Nc3cc(Cl)c4ncc(C#N)c(Nc5ccc(F)c(Cl)c5)c4c3)c3cccc4c3CNC4)nn2)CC1` [Example 59, (S)-6-(((1-(1-(tert-butyl)piperidin-4-yl)-1H-1,2,3-triazol-4-yl)(isoindolin-4-yl)methyl)amino)-8-chloro-4-((3-chloro-4-fluorophenyl)amino)quinoline-3-carbonitrile] showed an IC50 in experiment [1] (IC50 HTRF) of 2 nM. Besides, in experiment [2] (setting [3]), the EC50 amounted to 892 nM.

With `CC(C)n1cc([C@@H](Nc2cc(Cl)c3ncc(C#N)c(Nc4ccc(F)c(Cl)c4)c3c2)c2ccc3ncsc3c2)nn1` [Example 61, (S)-6-((benzo[d]thiazol-6-yl(1-isopropyl-1H-1,2,3-triazol-4-yl)nielhyl)amino)-8-chloro-4-((3-chloro-4-fluorophenyl)amino)quinoline-3-carbonitrile], the IC50 in experiment [1] (read-out: IC50 HTRF) came out at 11 nM. In experiment [2] (setting [4]), the EC50 was determined as 238 nM.

For the compound `CC(C)(C)N1CCC(n2cc([C@@H](Nc3cc(Cl)c4ncc(C#N)c(Nc5ccc(F)c(Cl)c5)c4c3)c3ccc4scnc4c3)nn2)CC1` [Example 62, (S)-6-((benzo[d]thiazol-5-yl(1-(1-(tert-butyl)piperidin-4-yl)-1H-1,2,3-triazol-4-yl)methyl)amino)-8-chloro-4-((3-chloro-4-fluorophenyl)amino)quinoline-3-carbonitrile], it took 10 nM to reach half-maximal inhibition in experiment [1] (IC50 HTRF) (IC50). Moreover, the EC50 in experiment [2] (setting [3]) was determined as 216 nM.

Take `CC(C)(C)N1CCC(n2cc([C@@H](Nc3cc(Cl)c4ncc(C#N)c(Nc5ccc(F)c(Cl)c5)c4c3)c3ccc4sccc4c3)nn2)CC1` [Example 64, (S)-6-((benzo[b]thiophen-5-yl(1-(1-(tert-butyl)piperidin-4-yl)-1H-1,2,3-triazol-4-yl)methyl)amino)-8-chloro-4-((3-chloro-4-fluorophenyl)amino)quinoline-3-carbonitrile]: in experiment [1] (IC50 HTRF), half-maximal inhibition (IC50) was put at 42 nM. Moreover, the EC50 in experiment [2] (setting [3]) came to 2650 nM.

`CC(C)(C)CNc1c(C#N)cnc2c(C#N)cc(N[C@H](c3cn(C4(C#N)CC4)nn3)c3cccc4ncsc34)cc12` [Example 67, (S)-6-((benzo[d]thiazol-7-yl(1-(1-cyanocyclopropyl)-1H-1,2,3-triazol-4-yl)methyl)amino)-4-(neopentylamino)quinoline-3,8-dicarbonitrile]: the IC50 in experiment [1] (IC50 HTRF) was 1 nM. Besides, the EC50 in experiment [2] (setting [3]) is 32 nM.

`N#CCC[C@@H](Nc1c(C#N)cnc2c(Cl)cc(N[C@H](c3cn(C4CC4)nn3)c3cccc4c3CNC4)cc12)c1ccccc1` [Example 68, 8-chloro-4-(((R)-3-cyano-1-phenyl-propyl)amino)-6-(((S)-(1-cyclopropyl-1H-1,2,3-triazol-4-yl)(isoindolin-4-yl)methyl)amino)quinoline-3-carbonitrile] returned an IC50 in experiment [1] (IC50 HTRF) of 1 nM. Also, in experiment [2] (setting [3]), the EC50 came out at 51 nM.

Regarding `N#CCC[C@@H](Nc1c(C#N)cnc2c(Cl)cc(N[C@H](c3cn(C4CC4)nn3)c3cccc4ncsc34)cc12)c1ccccc1` [Example 69, 6-(((S)-benzo[d]thiazol-7-yl(1-cyclopropyl-1H-1,2,3-triazol-4-yl)methyl)amino)-8-chloro-4-(((R)-3-cyano-1-phenylpropyl)amino)quinoline-3-carbonitrile], in experiment [1] (IC50 HTRF), the IC50 was found to be 2 nM. For the same compound, the concentration giving a half-maximal response (EC50) in experiment [2] (setting [3]) is 33 nM.

In turn, `CC(C)(C)CNc1c(C#N)cnc2c(Br)cc(N[C@H](c3cn(C4CC4)nn3)c3cccc4nc(N)sc34)cc12` [Example 70, (S)-6-(((2-aminobenzo[d]thiazol-7-yl)(1-cyclopropyl-1H-1,2,3-triazol-4-yl)methyl)amino)-8-bromo-4-(neopentylamino)quinoline-3-carbonitrile] registered an IC50 in experiment [1] (IC50 HTRF) of 19 nM. Also, the EC50 in experiment [2] (setting [3]) stood at 804 nM.

Turning to `N#CCC[C@@H](Nc1c(C#N)cnc2c(Cl)cc(N[C@@H](c3cccnc3)c3cn(C4CC4)nn3)cc12)c1ccccc1` [Example 75, 8-chloro-4-(((R)-3-cyano-1-phenylpropyl)amino)-6-(((S)-(1-cyclopropyl-1H-1,2,3-triazol-4-yl)(pyridin-3-yl)methyl)amino)quinoline-3-carbonitrile], half-maximal inhibition in experiment [1] (IC50 HTRF) (IC50) was put at 2 nM. For the same compound, in experiment [2] (setting [3]), the EC50 came out at 79 nM.

In turn, `CN1Cc2cccc([C@H](Nc3cc(C#N)c4ncc(C#N)c(NCC(C)(C)C)c4c3)c3cn(C4CC4)nn3)c2C1=O` [Example 77, (S)-6-(((1-cyclopropyl-1H-1,2,3-triazol-4-yl)(2-methyl-3-oxoisoindolin-4-yl)methyl)amino)-4-(neopentylamino)quinoline-3,8-dicarbonitrile] gave an IC50 in experiment [1] (IC50 HTRF) of 3 nM. The EC50 in experiment [2] (setting [3]) stood at 154 nM.

With `CC(C)(C)CNc1c(C#N)cnc2c(Br)cc(N[C@H](c3cn(C4CC4)nn3)c3cccc4c3C(=O)NC4)cc12` [Example 78, (S)-8-bromo-6-(((1-cyclopropyl-1H-1,2,3-triazol-4-yl)(3-oxoisoindolin-4-yl)methyl)amino)-4-(neopentylamino)quinoline-3-carbonitrile], the IC50 in experiment [1] (IC50 HTRF) was found to be 3 nM. Also, the EC50 in experiment [2] (setting [3]) came out at 332 nM.

For `CC(C)(C)CNc1c(C#N)cnc2c(Cl)cc(N[C@@H](c3cn(C4CC4)nn3)c3csc4c3CCN(C3COC3)C4)cc12` [Example 81, (R)-8-chloro-6-(((1-cyclopropyl-1H-1,2,3-triazol-4-yl)(6-(oxctan-3-yl)-4,5,6,7-tetrahydrothieno[2,3-c]pyridin-3-yl)methyl)amino)-4-(neopentylamino)-quinoline-3-carbonitrile], the IC50 in experiment [1] (read-out: IC50 HTRF) was 400 nM. For the same compound, in experiment [2] (setting [4]), the EC50 was over 1000 nM.

Regarding `N#CCCC(Nc1c(C#N)cnc2c(Cl)cc(N[C@H](c3cn(C4[C@H]5CN(C6COC6)C[C@@H]45)nn3)c3csc4c3CCN(C3COC3)C4)cc12)c1ccccc1` (stereo partly drawn) [Example 82, 8-chloro-4-((3-cyano-1-phenylpropyl)amino)-6-(((S)-(1-((1R,5S,6r)-3-(oxetan-3-yl)-3-azabicyclo[3.1 0]hexan-6-yl)-1H-1,2,3-triazol-4-yl)(6-(oxetan-3-yl)-4,5,6,7-tetrahydrothieno[2,3-c]pyridin-3-yl)methyl)amino)-quinoline-3-carbonitrile], in experiment [1] (read-out: IC50 HTRF), the IC50 came out at 2 nM. Moreover, in experiment [2] (setting [4]), the concentration for a half-maximal effect (EC50) was 151 nM.

Consider `N#CCCC(Nc1c(C#N)cnc2c(Cl)cc(N[C@@H](c3cn(C4CC4)nn3)c3csc4c3CCN(C3COC3)C4)cc12)c1ccccc1` (some centres unmarked) [Example 83, 8-chloro-4-((3-cyano-1-phenylpropyl)amino)-6-(((RH 1-cyclopropyl-1H-1,2,3-triazol-4-yl)(6-(oxetan-3-yl)-4,5,6,7-tetrahydrothieno[2,3-c]pyridin-3-yl)methyl)amino)-quinoline-3-carbonitrile], for which, in experiment [1] (read-out: IC50 HTRF), the IC50 amounted to 942 nM. Besides, in experiment [2] (setting [4]), the EC50 was determined as 1000 nM.

`N#CCC[C@@H](Nc1c(C#N)cnc2c(Cl)cc(N[C@H](c3cn(C4CC4)nn3)c3csc4c3CCN(C3COC3)C4)cc12)c1ccccc1` [Example 84, 8-chloro-4-(((R)-3-cyano-1-phenylpropyl)amino)-6-(((S)-(1-cyclopropyl-1H-1,2,3-triazol-4-yl)(6-(oxetan-3-yl)-4,5,6,7-tetrahydrothieno[2,3-c]pyridin-3-yl)methyl)amino)quinoline-3-carbonitrile] returned an IC50 in experiment [1] (IC50 HTRF) of 1 nM. The EC50 in experiment [2] (setting [3]) came out at 10 nM.

The compound `[2H][C@](Nc1cc(Cl)c2ncc(C#N)c(NCC(C)(C)C)c2c1)(c1ccc(F)nc1)c1cn(CC(=O)O)nn1` [Example 85, (S)-2-(4-(((8-chloro-3-cyano-4-(neopentylamino)quinolin-6-yl)amino)(6-fluoropyridin-3-yl)methyl-d)-1H-1,2,3-triazol-1-yl)acetic acid] had an IC50 in experiment [1] (IC50 HTRF) of 4 nM. For the same compound, in experiment [2] (setting [3]), the EC50 was over 1000 nM.
